Results from US20260285880A1, “SUBSTITUTED DIHYDROTHIENOPYRIMIDINE COMPOUND, PREPARATION METHOD THEREFOR, AND USE THEREOF” (SHANGHAI YIDI BIOTECHNOLOGY CO., LTD., priority 2023, published 2026).

The compounds below were run against Flpin-293-PDE4B2 cells (Homo sapiens, UniProt Q07343) (assay: cell-based). Conditions: read-out: Cell Inhibition % @1 nM, 1 nM, Flpin-293-PDE4B2 cells.
Sequence of Flpin-293-PDE4B2 cells (Q07343 1-564 isoform Q07343-2): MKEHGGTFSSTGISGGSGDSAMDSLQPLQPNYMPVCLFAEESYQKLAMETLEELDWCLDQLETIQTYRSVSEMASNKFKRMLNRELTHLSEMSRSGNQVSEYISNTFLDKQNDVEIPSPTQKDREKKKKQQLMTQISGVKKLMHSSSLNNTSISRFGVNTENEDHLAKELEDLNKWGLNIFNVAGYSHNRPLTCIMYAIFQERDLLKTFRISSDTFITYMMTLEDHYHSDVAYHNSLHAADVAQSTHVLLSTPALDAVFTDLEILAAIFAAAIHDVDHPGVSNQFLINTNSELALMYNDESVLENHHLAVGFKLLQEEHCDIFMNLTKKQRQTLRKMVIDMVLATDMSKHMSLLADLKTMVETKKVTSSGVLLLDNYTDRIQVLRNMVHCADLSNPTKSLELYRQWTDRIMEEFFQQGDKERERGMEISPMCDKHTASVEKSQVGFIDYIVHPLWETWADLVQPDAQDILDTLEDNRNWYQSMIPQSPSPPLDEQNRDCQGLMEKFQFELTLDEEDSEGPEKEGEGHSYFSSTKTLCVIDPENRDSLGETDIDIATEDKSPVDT
`CN1CC(Nc2nc(N3CCc4cc(Cl)ccc4C3)nc3c2[S+]([O-])CC3)CCC1=O` (stereo not drawn) [Compound 136] was tested, and the inhibition at 0.001 µM was 48.1%.
In the case of `[O-][S+]1CCc2nc(N3CCc4cc(N5CC6CC6C5)ccc4C3)nc(NC3(CO)CCC3)c21` (stereo not drawn) [Compound 145], the inhibition at 0.001 µM is reported as 4.25%.
For `C[C@@H]1CCCN1c1ccc2c(c1)CCN(c1nc3c(c(NC4(CO)CCC4)n1)[S+]([O-])CC3)C2` (stereo partly drawn) [Compound 133], the inhibition at 0.001 µM was 10.5%.
`C[C@H]1c2ccc(N3CCCC3)cc2CCN1c1nc2c(c(N[C@@H]3CC[C@H]3O)n1)[S+]([O-])CC2` (stereo partly drawn) [Compound 201] was tested, and the inhibition at 0.001 µM was 7.33%.
`CN1C[C@@H]2CCN(c3ccc4c(c3)CCN(c3nc5c(c(NC6(CO)CCC6)n3)[S+]([O-])CC5)C4)[C@@H]2C1` (stereo partly drawn) [Compound 162] showed an inhibition at 0.001 µM of 10.7%.
`[O-][S+]1CCc2nc(N3CCc4cc(N5CC6CC5C6)ccc4C3)nc(NC3(CO)CCC3)c21` (stereo not drawn) [Compound 177] showed an inhibition at 0.001 µM of 7.25%.
Compound `[O-][S+]1CCc2nc(N3CCc4cc(N5CC6COCC6C5)ccc4C3)nc(NC3(CO)CCC3)c21` (stereo not drawn) [Compound 154] has an inhibition at 0.001 µM of 26.5%.
`[O-][S+]1CCc2nc(N3CCc4cc(Cl)ccc4[C@H]3C3CC3)nc(NC3(CO)CCC3)c21` (stereo partly drawn) [Compound 125] gave an inhibition at 0.001 µM of 2.85%.
Compound `[O-][S+]1CCc2nc(N3CCc4cc(N5CCC6(COC6)C5)ccc4C3)nc(NC3(CO)CCC3)c21` (stereo not drawn) [Compound 165] has an inhibition at 0.001 µM of 10.3%.

Same assay, conditions: read-out: Cell Inhibition % @10 nM, 10 nM, Flpin-293-PDE4B2 cells
`CN1CC(Nc2nc(N3CCc4cc(Cl)ccc4C3)nc3c2[S+]([O-])CC3)CCC1=O` (stereo not drawn) [Compound 136] gave an inhibition at 0.01 µM of 98.3%.
`[O-][S+]1CCc2nc(N3CCc4cc(N5CC6CC6C5)ccc4C3)nc(NC3(CO)CCC3)c21` (stereo not drawn) [Compound 145] showed an inhibition at 0.01 µM of 36%.
`C[C@@H]1CCCN1c1ccc2c(c1)CCN(c1nc3c(c(NC4(CO)CCC4)n1)[S+]([O-])CC3)C2` (stereo partly drawn) [Compound 133] was tested, and the inhibition at 0.01 µM was 33%.
With `C[C@H]1c2ccc(N3CCCC3)cc2CCN1c1nc2c(c(N[C@@H]3CC[C@H]3O)n1)[S+]([O-])CC2` (stereo partly drawn) [Compound 201] the inhibition at 0.01 µM was 72.3%.
Compound `CN1C[C@@H]2CCN(c3ccc4c(c3)CCN(c3nc5c(c(NC6(CO)CCC6)n3)[S+]([O-])CC5)C4)[C@@H]2C1` (stereo partly drawn) [Compound 162] has an inhibition at 0.01 µM of 52.8%.
In the case of `[O-][S+]1CCc2nc(N3CCc4cc(N5CC6CC5C6)ccc4C3)nc(NC3(CO)CCC3)c21` (stereo not drawn) [Compound 177], the inhibition at 0.01 µM is reported as 53.3%.
`[O-][S+]1CCc2nc(N3CCc4cc(N5CC6COCC6C5)ccc4C3)nc(NC3(CO)CCC3)c21` (stereo not drawn) [Compound 154] showed an inhibition at 0.01 µM of 91%.
With `[O-][S+]1CCc2nc(N3CCc4cc(Cl)ccc4[C@H]3C3CC3)nc(NC3(CO)CCC3)c21` (stereo partly drawn) [Compound 125] the inhibition at 0.01 µM was 21.8%.
`[O-][S+]1CCc2nc(N3CCc4cc(N5CCC6(COC6)C5)ccc4C3)nc(NC3(CO)CCC3)c21` (stereo not drawn) [Compound 165] showed an inhibition at 0.01 µM of 76.8%.

Same assay, conditions: read-out: Cell Inhibition % @100 nM, 100 nM, Flpin-293-PDE4B2 cells
Work on `CN1CC(Nc2nc(N3CCc4cc(Cl)ccc4C3)nc3c2[S+]([O-])CC3)CCC1=O` (stereo not drawn) [Compound 136] yielded an inhibition at 0.1 µM of 101%.
`[O-][S+]1CCc2nc(N3CCc4cc(N5CC6CC6C5)ccc4C3)nc(NC3(CO)CCC3)c21` (stereo not drawn) [Compound 145] was tested, and the inhibition at 0.1 µM was 95.9%.
Compound `C[C@@H]1CCCN1c1ccc2c(c1)CCN(c1nc3c(c(NC4(CO)CCC4)n1)[S+]([O-])CC3)C2` (stereo partly drawn) [Compound 133] has an inhibition at 0.1 µM of 94.2%.
`C[C@H]1c2ccc(N3CCCC3)cc2CCN1c1nc2c(c(N[C@@H]3CC[C@H]3O)n1)[S+]([O-])CC2` (stereo partly drawn) [Compound 201] showed an inhibition at 0.1 µM of 99.9%.
`CN1C[C@@H]2CCN(c3ccc4c(c3)CCN(c3nc5c(c(NC6(CO)CCC6)n3)[S+]([O-])CC5)C4)[C@@H]2C1` (stereo partly drawn) [Compound 162] showed an inhibition at 0.1 µM of 93.8%.
With `[O-][S+]1CCc2nc(N3CCc4cc(N5CC6CC5C6)ccc4C3)nc(NC3(CO)CCC3)c21` (stereo not drawn) [Compound 177] the inhibition at 0.1 µM was 98.6%.
Work on `[O-][S+]1CCc2nc(N3CCc4cc(N5CC6COCC6C5)ccc4C3)nc(NC3(CO)CCC3)c21` (stereo not drawn) [Compound 154] yielded an inhibition at 0.1 µM of 99.7%.
Compound `[O-][S+]1CCc2nc(N3CCc4cc(Cl)ccc4[C@H]3C3CC3)nc(NC3(CO)CCC3)c21` (stereo partly drawn) [Compound 125] has an inhibition at 0.1 µM of 90.6%.
`[O-][S+]1CCc2nc(N3CCc4cc(N5CCC6(COC6)C5)ccc4C3)nc(NC3(CO)CCC3)c21` (stereo not drawn) [Compound 165] gave an inhibition at 0.1 µM of 99.9%.

What follows are compounds tested against PDE4B2 (Homo sapiens, UniProt Q07343) (assay: not given). Conditions: read-out: PDE4B2 IC50; enzyme assay.
Sequence of PDE4B2 (Q07343 1-564 isoform Q07343-2, species assumed): as the sequence (Q07343 1-564 isoform Q07343-2) above
Compound `CN1CC(Nc2nc(N3CCc4cc(Cl)ccc4C3)nc3c2[S+]([O-])CC3)CCC1=O` (stereo not drawn) [Compound 136] has an IC50 of 0.0407 nM.
`[O-][S+]1CCc2nc(N3CCc4cc(N5CC6CC6C5)ccc4C3)nc(NC3(CO)CCC3)c21` (stereo not drawn) [Compound 145] showed an IC50 of 0.245 nM.
Compound `C[C@@H]1CCCN1c1ccc2c(c1)CCN(c1nc3c(c(NC4(CO)CCC4)n1)[S+]([O-])CC3)C2` (stereo partly drawn) [Compound 133] has an IC50 of 0.515 nM.
`C[C@H]1c2ccc(N3CCCC3)cc2CCN1c1nc2c(c(N[C@@H]3CC[C@H]3O)n1)[S+]([O-])CC2` (stereo partly drawn) [Compound 201] was tested, and the IC50 was 0.194 nM.
Compound `CN1C[C@@H]2CCN(c3ccc4c(c3)CCN(c3nc5c(c(NC6(CO)CCC6)n3)[S+]([O-])CC5)C4)[C@@H]2C1` (stereo partly drawn) [Compound 162] has an IC50 of 0.589 nM.
For `[O-][S+]1CCc2nc(N3CCc4cc(N5CC6CC5C6)ccc4C3)nc(NC3(CO)CCC3)c21` (stereo not drawn) [Compound 177], the IC50 was 0.508 nM.
In the case of `[O-][S+]1CCc2nc(N3CCc4cc(N5CC6COCC6C5)ccc4C3)nc(NC3(CO)CCC3)c21` (stereo not drawn) [Compound 154], the IC50 is reported as 0.138 nM.
For `[O-][S+]1CCc2nc(N3CCc4cc(Cl)ccc4[C@H]3C3CC3)nc(NC3(CO)CCC3)c21` (stereo partly drawn) [Compound 125], the IC50 was 0.968 nM.
Work on `[O-][S+]1CCc2nc(N3CCc4cc(N5CCC6(COC6)C5)ccc4C3)nc(NC3(CO)CCC3)c21` (stereo not drawn) [Compound 165] yielded an IC50 of 0.351 nM.

What follows are compounds tested against PDE4D2 (Homo sapiens, UniProt Q08499) (assay: PDE4D2 enzyme experiment (AMP-Glo)). Conditions: read-out: PDE4D2 IC50 Binding; enzyme assay.
Sequence of PDE4D2 (Q08499 303-809 limits assumed): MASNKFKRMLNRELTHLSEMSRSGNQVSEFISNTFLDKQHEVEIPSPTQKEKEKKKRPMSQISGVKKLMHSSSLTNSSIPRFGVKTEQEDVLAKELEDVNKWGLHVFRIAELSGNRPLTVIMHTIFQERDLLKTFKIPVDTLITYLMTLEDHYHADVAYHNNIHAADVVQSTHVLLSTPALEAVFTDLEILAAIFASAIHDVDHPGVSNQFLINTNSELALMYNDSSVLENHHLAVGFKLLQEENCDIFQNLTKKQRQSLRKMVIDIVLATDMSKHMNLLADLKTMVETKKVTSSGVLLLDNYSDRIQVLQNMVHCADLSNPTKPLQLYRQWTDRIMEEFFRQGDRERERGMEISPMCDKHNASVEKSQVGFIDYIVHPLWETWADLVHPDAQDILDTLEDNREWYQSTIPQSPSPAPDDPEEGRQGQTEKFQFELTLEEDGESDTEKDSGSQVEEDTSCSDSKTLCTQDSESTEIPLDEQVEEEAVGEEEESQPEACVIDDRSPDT
Protocol: All compounds were dissolved in DMSO into 10 mM or 20 mM stock solutions. The compound to be tested was diluted with DMSO in a 3-fold gradient. 20 nL/well of the compound or a DMSO control was transferred to a 384-well plate by using Echo 550 instrument. The plate was sealed with a membrane and centrifuged for 1 minute. A 2× enzyme solution was prepared with an assay buffer, and 2 uL/well of the 2× enzyme solution was added, followed by equilibration at room temperature for 10 minutes. A 2× Cyclic-3′,5′-AMP substrate solution was prepared with an assay buffer, and 2 uL/well of the 2× substrate solution was added, followed by incubation at room temperature for 60 minutes. 4 μL of AMP-glo reagent was added, followed by incubation at room temperature for 60 minutes. 8 ul of an AMP detection solution was added, followed by incubation at room temperature for 60 minutes. An RLU value was read on Envision 2105 plate reader. The RLU value represents the concentration of the product AMP. Inhibition rate %=(1−(RLUpositive control−RLUcomnpound)/(RLUpositive control−RLUnegative control))*100. The IC50 value was then calculated by Graphpad 8.0 software using Y=Bottom+(Top−Bottom)/(1+10^((LogIC50−X)*HillSlope)).
`CN1CC(Nc2nc(N3CCc4cc(Cl)ccc4C3)nc3c2[S+]([O-])CC3)CCC1=O` (stereo not drawn) [Compound 136] gave an IC50 of 0.0825 nM.
Compound `[O-][S+]1CCc2nc(N3CCc4cc(N5CC6CC6C5)ccc4C3)nc(NC3(CO)CCC3)c21` (stereo not drawn) [Compound 145] has an IC50 of 0.985 nM.
`C[C@@H]1CCCN1c1ccc2c(c1)CCN(c1nc3c(c(NC4(CO)CCC4)n1)[S+]([O-])CC3)C2` (stereo partly drawn) [Compound 133] gave an IC50 of 1.55 nM.
In the case of `C[C@H]1c2ccc(N3CCCC3)cc2CCN1c1nc2c(c(N[C@@H]3CC[C@H]3O)n1)[S+]([O-])CC2` (stereo partly drawn) [Compound 201], the IC50 is reported as 0.596 nM.
`CN1C[C@@H]2CCN(c3ccc4c(c3)CCN(c3nc5c(c(NC6(CO)CCC6)n3)[S+]([O-])CC5)C4)[C@@H]2C1` (stereo partly drawn) [Compound 162] gave an IC50 of 0.584 nM.
`[O-][S+]1CCc2nc(N3CCc4cc(N5CC6CC5C6)ccc4C3)nc(NC3(CO)CCC3)c21` (stereo not drawn) [Compound 177] gave an IC50 of 0.502 nM.
`[O-][S+]1CCc2nc(N3CCc4cc(N5CC6COCC6C5)ccc4C3)nc(NC3(CO)CCC3)c21` (stereo not drawn) [Compound 154] showed an IC50 of 0.279 nM.
`[O-][S+]1CCc2nc(N3CCc4cc(Cl)ccc4[C@H]3C3CC3)nc(NC3(CO)CCC3)c21` (stereo partly drawn) [Compound 125] showed an IC50 of 1.98 nM.
In the case of `[O-][S+]1CCc2nc(N3CCc4cc(N5CCC6(COC6)C5)ccc4C3)nc(NC3(CO)CCC3)c21` (stereo not drawn) [Compound 165], the IC50 is reported as 0.398 nM.
